Laboratory results: ChEMBL document CHEMBL1129432, “Structure-activity relationships of a series of novel (piperazinylbutyl)thiazolidinone antipsychotic agents related to 3-[4-[4-(6-fluorobenzo[b]thien-3-yl)-1-piperazinyl]butyl]-2,5,5- trimethyl-4-thiazolidinone maleate” (J Med Chem, 1996)

Assays:
[1] = biological target: T1, 5-hydroxytryptamine receptor 1A (Rattus norvegicus, UniProt P19327); test: Binding affinity towards serotonin 5-HT1A receptor was determined in rat hippocampus using [3H]8-OH-DPAT as ligand; assay type: tissue-based
T1 sequence (P19327 whole entry): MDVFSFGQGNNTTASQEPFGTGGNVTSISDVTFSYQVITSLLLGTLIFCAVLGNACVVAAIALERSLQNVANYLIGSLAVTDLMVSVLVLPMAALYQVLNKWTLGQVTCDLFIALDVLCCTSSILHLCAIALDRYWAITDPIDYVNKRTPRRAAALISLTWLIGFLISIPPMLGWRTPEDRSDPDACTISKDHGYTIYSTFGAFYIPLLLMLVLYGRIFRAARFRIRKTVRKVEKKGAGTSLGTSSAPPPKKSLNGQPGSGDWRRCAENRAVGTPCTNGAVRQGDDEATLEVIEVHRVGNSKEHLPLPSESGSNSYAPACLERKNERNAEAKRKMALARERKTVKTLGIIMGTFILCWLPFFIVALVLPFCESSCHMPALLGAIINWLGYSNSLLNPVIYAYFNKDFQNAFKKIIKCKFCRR

[2] = biological target: Serotonin 2 (5-HT2) receptor (Rattus norvegicus, UniProt P30994+P08909+P14842); test: Binding affinity towards serotonin 5-HT2 receptor was determined in rat cortex using [3H]spiperone as ligand
D(2) dopamine receptor = D(2) dopamine receptor (Rattus norvegicus, UniProt P61169); test: Binding affinity towards Dopamine receptor D2 was determined in rat striatum using [3H]- spiperone as radioligand; assay type: tissue-based
Rattus norvegicus [3] = test: Compound at an intraperitoneal dose of 20 mg/Kg was tested for the inhibition of apomorphine-induced stereotypy in rat; assay type: functional; parameters: scale not given: the % may be the effect or the level left
[4] = Compound at an intraperitoneal dose of 40 mg/Kg was tested for the inhibition of apomorphine-induced stereotypy in rat; assay type: functional; parameters: scale not given: the % may be the effect or the level left
[5] = Intraperitoneal effective dose required for inhibition of apomorphine-induced stereotypy in rat; assay type: functional; settings: ip
Rattus norvegicus [6] = test: Compound at an intraperitoneal dose of 10 mg/Kg was tested for the inhibition of apomorphine-induced stereotypy in rat; assay type: functional; parameters: scale not given: the % may be the effect or the level left
Rattus norvegicus [7] = test: Compound at an intraperitoneal dose of 80 mg/Kg was tested for the inhibition of apomorphine-induced stereotypy in rat; assay type: functional; parameters: scale not given: the % may be the effect or the level left
Rattus norvegicus [8] = test: Compound at an intraperitoneal dose of 2.5 mg/Kg was tested for the inhibition of apomorphine-induced stereotypy in rat; assay type: functional; parameters: scale not given: the % may be the effect or the level left
Rattus norvegicus [9] = test: Compound at an intraperitoneal dose of 5 mg/Kg was tested for the inhibition of apomorphine-induced stereotypy in rat; assay type: functional; parameters: scale not given: the % may be the effect or the level left

Chain of D(2) dopamine receptor (P61169 whole entry): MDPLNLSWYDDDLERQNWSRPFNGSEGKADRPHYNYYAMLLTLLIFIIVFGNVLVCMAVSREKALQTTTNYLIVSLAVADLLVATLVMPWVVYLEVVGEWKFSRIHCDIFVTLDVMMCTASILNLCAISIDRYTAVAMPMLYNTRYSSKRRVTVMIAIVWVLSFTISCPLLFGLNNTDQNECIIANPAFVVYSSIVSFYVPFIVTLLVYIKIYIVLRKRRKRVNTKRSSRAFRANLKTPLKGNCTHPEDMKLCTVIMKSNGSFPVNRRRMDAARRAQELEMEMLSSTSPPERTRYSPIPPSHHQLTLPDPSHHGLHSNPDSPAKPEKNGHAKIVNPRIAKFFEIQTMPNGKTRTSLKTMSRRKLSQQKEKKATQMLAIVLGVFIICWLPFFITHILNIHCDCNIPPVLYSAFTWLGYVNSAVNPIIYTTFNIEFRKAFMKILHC

Row | Compound | IC50 [1] [nM] | IC50 [2] [µM] | IC50 (D(2) dopamine receptor) [nM] | further results
1 | O=C1N(CCCCN2CCN(c3nsc4cc(Cl)ccc34)CC2)CSC12CCCCC2 | 969 | 1.06 | 671 | Activity (Rattus norvegicus [3]): 0%; Activity [4]: 80%
2 | CSc1cccc(N2CCN(CCCCN3C(=O)CSC3(C)C)CC2)c1 | 9 | 0.503 | 2430 | 
3 | O=C1CSCN1CCCCN1CCN(c2ccccc2Cl)CC1 | 23 |  | 652 | 
4 | O=C1N(CCCCN2CCN(c3csc4ccccc34)CC2)CSC12CCCC2 | 2 | 0.016 | 244 | 
5 | CC1(C)SCN(CCCCN2CCN(c3cn(-c4ccc(F)cc4)c4ccccc34)CC2)C1=O | 2330 | 0.053 | 131 | ED50 [5]: 7.1 mg/kg
6 | CC1(C)SCN(CCCCN2CCN(c3csc4cc(F)ccc34)CC2)C1=O |  | 0.01 | 14 | Activity (Rattus norvegicus [6]): 0%
7 | CC(C)(O)C1SCN(CCCCN2CCN(c3nsc4ccccc34)CC2)C1=O (stereo not given) | 12 | 0.0189 | 29 | ED50 [5]: 2.3 mg/kg
8 | O=C1CSCN1CCCCN1CCN(c2ccc3ccccc3n2)CC1 | 332 | 0.641 |  | 
9 | CC1SC(C)(C)C(=O)N1CCCCN1CCN(c2nsc3cc(Cl)ccc23)CC1 (stereo not given) |  | 0.271 |  | 
10 | O=C1N(CCCCN2CCN(c3csc4ccccc34)CC2)CSC12CCCCC2 | 102 | 0.196 | 218 | Activity (Rattus norvegicus [7]): 50%; Activity [4]: 33%
11 | Cc1nc2n(c(=O)c1CCN1CCC(c3noc4cc(F)ccc34)CC1)CCCC2 [RISPERIDONE] |  |  |  | ED50 [5]: 3.2 mg/kg
12 | O=C1C(CC(F)(F)F)SCN1CCCCN1CCN(c2nsc3ccccc23)CC1 (stereo not given) | 3 |  | 136 | ED50 [5]: 3.3 mg/kg
13 | CC1SC(C)(C)C(=O)N1CCCCN1CCN(c2nsc3ccccc23)CC1 (stereo not given) | 7 | 0.002 |  | Activity (Rattus norvegicus [3]): 0%; Activity [4]: 40%
14 | O=C1N(CCCCN2CCN(c3cn(-c4ccccc4)c4ccccc34)CC2)CSC12CCCCC2 |  | 0.045 | 467 | ED50 [5]: 27.4 mg/kg
15 | Cc1cccc(N2CCN(CCCCN3CSCC3=O)CC2)c1 | 140 |  | 12600 | 
16 | CC1(C)SCN(CCCCN2CCN(c3nc4ccccc4s3)CC2)C1=O | 1370 | 2.31 |  | 
17 | CC1(C)SC(C)(C)N(CCCCN2CCN(c3nsc4ccccc34)CC2)C1=O | 17 | 0.0035 | 201 | 
18 | CC1SC(C)(C)C(=O)N1CCCCN1CCN(c2cn(-c3ccccc3)c3ccccc23)CC1 (stereo not given) | 2550 | 0.186 | 200 | Activity (Rattus norvegicus [7]): 67%; Activity [4]: 0%
19 | CC1SCC(=O)N1CCCCN1CCN(c2cccc(Cl)c2)CC1 (stereo not given) | 10 |  | 2230 | 
20 | COc1ccccc1N1CCN(CCCCN2CSC(C)C2=O)CC1 (stereo not given) | 220 |  |  | 

Row | Compound | IC50 [1] [nM] | IC50 [2] [µM] | IC50 (D(2) dopamine receptor) [nM] | further results
21 | Cc1ccccc1N1CCN(CCCCN2CSC(C)(C)C2=O)CC1 | 13 | 0.569 | 1770 | 
22 | Cc1cccc(N2CCN(CCCCN3C(=O)C(C)(C)SC3(C)C)CC2)c1 | 38 | 0.439 | 1840 | 
23 | O=C1N(CCCCN2CCN(c3nsc4ccccc34)CC2)CSC12Cc1ccccc1C2 | 52 | 1.11 | 697 | Activity (Rattus norvegicus [7]): 50%; Activity [4]: 0%
24 | O=C1N(CCCCN2CCN(c3nsc4ccccc34)CC2)CSC12CCCC2 | 2 | 0.003 |  | Activity (Rattus norvegicus [6]): 90%
25 | O=C1CSCN1CCCCN1CCN(c2nsc3ccccc23)CC1 | 11 | 0.007 | 224 | 
26 | CC(C)(O)C1SCN(CCCCN2CCN(c3csc4cc(F)ccc34)CC2)C1=O (stereo not given) | 91 | 0.105 | 453 | Activity (Rattus norvegicus [8]): 10%; Activity (Rattus norvegicus [9]): 40%
27 | CC1(C)SCN(CCCCN2CCN(c3nsc4ccccc34)CC2)C1=O | 8 | 0.001 |  | ED50 [5]: 8.9 mg/kg
28 | CC1(C)SCN(CCCCN2CCN(c3cn(-c4ccccc4)c4ccccc34)CC2)C1=O | 1730 | 0.294 | 191 | ED50 [5]: 19.6 mg/kg
29 | CC1SC(C)(C)C(=O)N1CCCCN1CCN(c2csc3cc(Cl)ccc23)CC1 (stereo not given) | 855 | 1.54 | 4730 | 
30 | COc1ccccc1N1CCN(CCCCN2CSC3(CCCC3)C2=O)CC1 | 2 | 0.492 | 150 | 
31 | CC1(C)SCC(=O)N1CCCCN1CCN(c2cccc(Cl)c2)CC1 |  |  | 835 | 
32 | CC1(C)SCN(CCCCN2CCN(c3ccc4ccccc4n3)CC2)C1=O | 153 | 0.446 |  | 
33 | O=C1N(CCCCN2CCN(c3nsc4ccccc34)CC2)CSC12CCCCC2 | 2 | 0.018 |  | Activity (Rattus norvegicus [6]): 100%
34 | O=C1N(CCCCN2CCN(C3=NS(=O)(=O)c4ccccc43)CC2)CSC12CCCC2 |  | > 20 |  | 
35 | CC1SC(C)(C)C(=O)N1CCCCN1CCN(c2cn(-c3ccc(F)cc3)c3ccccc23)CC1 (stereo not given) | 3050 | 0.126 | 59 | ED50 [5]: 16.4 mg/kg
36 | O=C1CSCN1CCCCN1CCN(c2ccc(F)cc2)CC1 | 140 |  |  | 
37 | O=C1N(CCCCN2CCN(c3cn(-c4ccc(F)cc4)c4ccccc34)CC2)CSC12CCCCC2 | 9030 | 0.142 | 18 | 
38 | CC1SC2(CCCC2)C(=O)N1CCCCN1CCN(c2csc3cc(Cl)ccc23)CC1 (stereo not given) | 776 | 0.58 | 611 | 
39 | CC1(C)SCN(CCCCN2CCN(c3cc4ccccc4cn3)CC2)C1=O | 629 | 0.085 | 8430 | 
40 | COc1ccccc1N1CCN(CCCCN2C(=O)C(C)(C)SC2(C)C)CC1 | 18 |  |  | 

Row | Compound | IC50 [1] [nM] | IC50 [2] [µM] | IC50 (D(2) dopamine receptor) [nM] | further results
41 | Cc1ccccc1N1CCN(CCCCN2CSCC2=O)CC1 | 61 |  | 1610 | 
42 | Cc1cccc(N2CCN(CCCCN3CSCC3=O)CC2)c1C | 83 |  | 778 | 
43 | O=C1CSCN1CCCCN1CCN(c2cccc(C(F)(F)F)c2)CC1 | 34 |  | 1960 | 
44 | O=C1CSCN1CCCCN1CCN(c2cccc(Cl)c2)CC1 | 57 |  | 2210 | 
45 | O=C1CSCN1CCCCN1CCN(c2ccc(Cl)cc2)CC1 | 1280 |  | 8760 | 
46 | COc1ccccc1N1CCN(CCCCN2C(=O)CSC2(C)C)CC1 | 10 |  | 514 | 
47 | CC1(C)SCC(=O)N1CCCCN1CCN(c2cccc(C(F)(F)F)c2)CC1 |  |  | 1130 | 
48 | CC1(C)SCN(CCCCN2CCN(c3cccc(C(F)(F)F)c3)CC2)C1=O | 7 | 0.09 | 1640 | 
49 | Cc1cccc(N2CCN(CCCCN3C(=O)CSC3(C)C)CC2)c1 | 26 |  | 3750 | 
50 | CC1SCN(CCCCN2CCN(c3nsc4ccccc34)CC2)C1=O (stereo not given) | 11 | 0.005 | 86 | Activity (Rattus norvegicus [3]): 0%; Activity [4]: 17%
51 | CC1SC(C)(C)C(=O)N1CCCCN1CCN(c2cn(-c3ccccc3)c3cc(F)ccc23)CC1 (stereo not given) | 8080 | 0.119 | 1090 | 
52 | CC1SC2(CCCC2)C(=O)N1CCCCN1CCN(c2cn(-c3ccccc3)c3ccccc23)CC1 (stereo not given) | 11700 | 0.0981 | 356 | ED50 [5]: 41.7 mg/kg
53 | Cc1cccc(N2CCN(CCCCN3CSC(C)(C)C3=O)CC2)c1C | 6 | 0.414 | 916 | 
54 | O=C1CSCN1CCCCN1CCN(c2nc3ccccc3s2)CC1 | 367 | 8.42 |  | 
55 | Cc1cccc(N2CCN(CCCCN3CSC(C)(C)C3=O)CC2)c1 | 12 |  |  | 
56 | CC1(C)SCC(=O)N1CCCCN1CCN(c2nsc3ccccc23)CC1 | 7 | 0.012 | 193 | 
57 | COc1ccccc1N1CCN(CCCCN2CSC(C)(C)C2=O)CC1 | 11 | 0.588 | 548 | 
58 | COc1cccc(N2CCN(CCCCN3CSCC3=O)CC2)c1 | 139 |  | 7490 | 
59 | Cc1cc2c(s1)Nc1ccccc1N=C2N1CCN(C)CC1 [OLANZAPINE] |  | 0.047 |  | 
